The NIST ThermoML archive (doi:10.1016/j.jct.2014.01.025)
Numbers after ± are expanded uncertainties.

Conditions: Liquid; for Critical pressure: Direct measurement; for Critical temperature: Visual observation in an unstirred cell

| Critical pressure | Critical temperature | SMILES |
| --- | --- | --- |
| 2761 ± 31 kPa | 540 ± 2.4 K | CCCCCCC [heptane] |
| 5172 ± 31 kPa | 537 ± 2.4 K | CCCO [propan-1-ol] |
| 8128 ± 31 kPa | 512.3 ± 2.4 K | CO [methanol] |
| 6135 ± 31 kPa | 514.2 ± 2.4 K | CCO [ethanol] |
